{
  "source": "paper PMC5667507",
  "about": "“A novel ^18F-labelled high affinity agent for PET imaging of the translocator protein” (Chemical Science, 2015)",
  "key": {"[1]": {"assay": "Baseline dynamic PET scan of healthy baboon brain", "format": "in vivo", "conditions": "whole brain, 240 min dynamic PET, i.v. bolus", "description": "Following PET reconstruction and co-registration to an MRI (Fig. 7a), a time–activity curve for the tracer in the whole brain was established (Fig. 7b). […]\ndivided by the animal weight. A secondary spherical VOI was used to define the contralateral kinetics and the tumour to contralateral SUV ratio was calculated as a function of time. […]\nwere represented graphically using the GraphPad Prism 6 software (GraphPad Softare Inc).\n14. Primate PET Methodology\nA baboon (Papio anubis, 21.3 kg) was fasted for up to 12 h prior to imaging. […] Body temperature was maintained using a heated water blanket and monitored by rectal thermometer. Vital signs, including end tidal CO2, SpO2, heart rate, respiration rate and blood pressure, were monitored continuously and recorded at least every 15 min during the study. […]\ngenerated and SUV determined as the concentration in the VOI divided by the injected dose divided […]\nexception of the samples collected for metabolite analysis (3.5 mL each), all blood samples were 1 mL each. […] After blood collection, all samples were kept on ice until analysed.\nRadioactivity in whole blood and plasma was assessed with a well-type γ-counter using a 400–1400 keV window (Perkin Elmer Wallac 2480, USA). […]"}, "TSPO": {"test_system": "TSPO", "assay": "Dynamic PET scan of a mouse bearing an intracranial U87MG-Luc2 tumour", "format": "in vivo", "conditions": "single mouse, 120 min dynamic PET, early portion of the scan", "description": "In order to investigate the potential of [^18F]-AB5186 6 as a PET tracer for TSPO a dynamic PET scan was performed using the Albira imaging system (Carestream Molecular Imaging, USA) in a single mouse bearing an intracranial U87MG-Luc2 tumour for 120 min after intravenous administration of the tracer. Postmortem histological examination of the brain collected at the end of the scan was conducted to visualise the anatomical location of the tumour. Following reconstruction, the entire dynamic PET image was manually co-registered to key anatomical structures of the CT (i.e. the spine, the front limbs and the eye sockets). […]\nFig. 6 Averaged PET images of a U87MG-Luc2 glioma bearing mouse brain following [^18F]-AB5186 injection: (a) 0–40 min averaged, (b) 41–80 min averaged, and (c) 81–120 min averaged; 120 min dynamic scan. […] (f) Tracer kinetics expressed as a ratio of the tumour to contralateral SUVs.\n20 min the mice were sacrificed by CO2 asphyxiation, the brains were removed and frozen using a Cryospray (Cellpath). […] The film was developed following an overnight incubation at −20 ° C and scanned using a Bio-Rad GS-800 Calibrated Densitometer with the aid the Quantity One Basic (version 4.6.3) software. Quantification was performed using the ImageJ 1.47v software. […]"}},
  "data": [
    {"smiles": "CCN(CC)C(=O)c1nc2ccccc2c(-c2ccccc2)c1C[18F]", "note": "[[^18F]-AB5186 6]", "values": [
      {"measurement": "peak standardised uptake value (SUV) in brain", "setting": "[1]", "result": 1.67},
      {"measurement": "amount of tracer in tumour versus contralateral region (time-activity curve)", "setting": "TSPO", "result": "greater amounts"}
    ]}
  ]
}
